# From patent US20170128489A1 (priority 2014, published 2017)
# Where two headings read alike, the source gives them in different places.
# Assays:
# [1] = system: influenza A (S31N), A/California/07/2009; type: cell-based, Influenza A virus
# M2 (22-62, S31N) = M2 (22-62, S31N) (Influenza A virus, UniProt P0DOF5, S31N); type: biochemical
# [2] = system: influenza A (S31N), A/California/07/2009; type: cell-based, Influenza A virus; remark: listed apart in the source
# [3] = target: influenza A M2 channels (A/Udorn/72, S31N mutant) (Influenza A virus, UniProt P0DOF5, S31N); type: cell-based; conditions: for Percent Block / EC50: pH 5.3
# [4] = target: M2 22-62 peptide, mutant A/Udorn/72 S31N (Influenza A virus, UniProt P0DOF5, S31N); type: biochemical
Molecule,% Block [1],EC50 [1],"% Block (M2 (22-62, S31N))","EC50 (M2 (22-62, S31N))",% Block [2],Percent Washout [3],Percent Block [3],Mutant Percent Block [4],Mutant w/ Compound Proton Flux [4],EC50 [2],EC50 [3]
"[Cl][Cu][Cl] [CuCl2, reference compound]",63%,57.2 µM,94%,6.1 µM,,,,,,,
"O=C(O)CN(CC(=O)O)C1CCCCCCC1.[Zn] [CO-IDA-Zn, Zinc cyclooctyliminodiacetic acid]",,,,,61.5%,80%,32%,76.29%,13.21 H^+/sec/channel,,
"NCCNCCN.[Cl][Cu][Cl] [Cu(dien)Cl2, reference compound]",66%,51.6 µM,,,,,,,,,
"O=C(O)CN(CC(=O)O)C12CC3CC(CC(C3)C1)C2.[Cu] [Amt-IDA-Cu, Copper N-(1-adamantyl)-iminodiacetic acid]",82%,21.8 µM,82%,,,,,,,,
Copper N-(1-adamantyl)iminoacetate acetylacetonate [Amt-IMA-Cu-ACAC],97%,2.91 µM,96%,,,58%,65%,,,,
"O=C(O)CN(CC(=O)O)C1CCCCCCC1 [CO-IDA, Cylcooctyliminodiacetic acid]",,,,,,,No Block,,,,
Copper pinanamine imidazole [Pin-Imid-Cu],,,,,71.6%,,,,,,
Zinc cyclooctylimidodiacetamide [CO-IDAm-Zn],,,,,54%,74%,42%,,,21.3 µM,
"CC(=O)[O-].CC(=O)[O-].[Cu+2] [Cu(Acetate)2, reference compound]",,,,,38%,4%,70%,67.23%,17.85 H^+/sec/channel,40.8 µM,74 µM
Cobalt bisethylenediamine pinanamine imidazole [Pin-Imid-Co-Bis(en)],,,,,65.6%,,No Block,,,13.1 µM,
"NC(=O)CN(CC(N)=O)C1CCCCCCC1 [CO-IDAm, Cyclooctylimidodiacetamide]",,,,,,100%,17%,,,,
"O=C(O)CN(CC(=O)O)C1CCCCCCC1.[Cu] [CO-IDA-Cu, Copper cyclooctyliminodiacetic acid]",,,,,62.2%,94%,26%,75.75%,12.89 H^+/sec/channel,30.3 µM,
"O=C1C[N](C2CCCCCCC2)[Cu]2([O]1)[O]C(=O)C[N]2C1CCCCCCC1 [Bis(CO-IMA)-Cu, Copper biscyclooctyl iminomonoacetic acid]",,,,,66.4%,11%,81%,70.38%,16.95 H^+/sec/channel,25.3 µM,
Copper N-(1-cyclooctyl)iminoacetate acetylacetonate [CO-IMA-Cu-ACAC],,,,,65.7%,16%,73%,,,13.1 µM,
Cobalt Biscyclooctylimidodiacetic acid [Bis(CO-IDA)-Co],,,,,50.6%,89%,28%,,,24.4 µM,240 µM
"CC(=O)[O][Zn]1[O]C(=O)C[N]1C1CCCCCCC1 [CO-IMA-Zn, Zinc cyclooctylaminoacetic acid]",,,,,79.8%,93%,42%,,,12.6 µM,
Copper cyclooctylimidodiacetamide [CO-IDAm-Cu],,,,,60.2%,10%,86%,,,33.5 µM,
